# Experimental data taken from ChEMBL document CHEMBL1154205, “Click chemistry based rapid one-pot synthesis and evaluation for protease inhibition of new tetracyclic triazole fused benzodiazepine derivatives” (Bioorg Med Chem Lett, 2009).
# Activity calls are given as the source filed them. The rule behind the calls is not given here.
# Assays:
# [1] = Inhibition of aspartic protease
# [2] = Inhibition of serine protease
# [3] = Inhibition of cysteine protease
Compound,inhibition [1],IC50 [2] [µM],IC50 [3]
O=C1c2cc(Br)ccc2-n2nncc2[C@@H]2CCCN12,inactive,290,Not Active
Cc1cc(Br)cc2c1C(=O)N1CCC[C@H]1c1cnnn1-2,inactive,674,Not Active
Cc1cccc2c1C(=O)N1C[C@H](OCc3ccccc3)C[C@H]1c1cnnn1-2,inactive,536,Not Active
O=C1c2cc(I)cc(I)c2-n2nncc2[C@@H]2C[C@@H](OCc3ccccc3)CN12,inactive,196,Not Active
O=C1c2c(cccc2[N+](=O)[O-])-n2nncc2[C@@H]2CCCN12,inactive,108,Not Active
O=C1c2cc(Br)ccc2-n2nncc2[C@@H]2C[C@@H](OCc3ccccc3)CN12,inactive,206,Not Active
